Measurements from patent US20180271857A1, “TREATMENT OF CANCER BY INHIBITING EZH2 ACTIVITY” (University of Copenhagen, priority 2014, published 2018).

Legend:
[1] = test system: Ezh2f/f; PDGFB/H3K27M NSCs injected into the mouse pons; assay: Survival of mice injected in the pons with pre-treated Ezh2f/f; PDGFB/H3K27M NSCs (FIG. 3b); conditions: 10^5 cells pre-treated with 4-OHT vs ethanol
Text: Briefly, mice were anesthetized using isoflurane (1.5 L O2/minute and 2.5% isoflurane) and placed in a stereotactic device (David Kopf instruments). […] The hole in the skull was closed with bonewax (Agnthos) and the scalp was closed using clips (Agnthos). The clips were removed after one week of injection.
PDGFB/H3K27M NSCs in mice with Ezh2^f/f; CreER (Ezh2^f/f;PDGFB/H3K27M) background were generated. In these mice Ezh2 could be conditionally deleted.

[2] = test system: Ezh2 expression in Ezh2f/f; PDGFB/H3K27M NSCs; assay: Immunoblot of Ezh2 after 4-OHT treatment of Ezh2f/f; PDGFB/H3K27M NSCs (FIG. 3a); format: cell-based, mouse; conditions: CreER PDGFB/H3K27M NSCs, 8 days of treatment (FIG. 3a)
Protocol: Cells were trypsinized, washed once with 1× phosphate buffer saline (PBS) and lysed in TOPEX+ buffer (300 mM NaCl, 50 mM Tris-HCl pH7.5, 0.5% Triton X-100, 1% SDS, 1 mM DTT, Aprotinin, Leupeptin, 0.1 mM phenylmethanesulfonyl fluoride (PMSF) and 33.33 U/mL Benzonase (EMD-Novagen)). Protein concentrations in the cell lysates were measured by Bradford reagent (Bio-Rad). Cell lysates were separated by SDS-PAGE and transferred to nitrocellulose membrane. The antibodies used for the immunoblotting were antibodies specifically recognising H3K27me3 (C36B11, Cell Signaling), H3K27me2, p16^Ink4a, p53, H3K27M, actin, H3 and Ezh2.

[3] = test system: PDGFB NSCs expressing either WT or K27M mutant H3.3; assay: Colony formation assay of PDGFB NSCs (FIG. 2C); format: cell-based, mouse; conditions: 2000 cells plated, colonies after 9 days
[4] = test system: Ink4a−/−/Arf−/− NSCs expressing constitutive active epidermal growth factor receptor (*EGFR); assay: Cell proliferation of adult GBM model cells (FIG. 4); format: cell-based, mouse; conditions: inhibitor vs DMSO
Text: Cell proliferation of DMSO or EZH2 inhibitor treated Ink4a/Arf−/−*EGFR NSCs.
A mouse model representing adult classical subtype of GBM subtypes was investigated.

[5] = test system: PDGFB NSCs expressing either WT or K27M mutant H3.3; conditions: 3 μM inhibitor vs DMSO
Text: Cells were harvested and counted using Neubauer chamber every 3-4 days.

[6] = test system: Ezh2f/f; PDGFB/H3K27M NSCs injected into the mouse pons; assay: Survival of mice bearing Ezh2f/f; PDGFB/H3K27M NSC tumours treated in vivo (FIG. 3c); conditions: 10^4 cells injected into the pons, treatment after 3 weeks, vs oil-treated control
[7] = biological target: T1, Human PRC2 complex (EZH2, EED, SUZ12, RbAp48, AEBP2) (Homo sapiens, UniProt Q15910); assay: EZH2 methyltransferase activity within PRC2 complex, scintillation proximity assay (Example 2); format: biochemical; conditions: determined as described in Example 2; inhibition of methyltransferase activity of EZH2 within PRC2
T1 construct: FLAG (N); made in house; host or cells: Sf9 insect cells
T1 sequence (Q15910 whole entry): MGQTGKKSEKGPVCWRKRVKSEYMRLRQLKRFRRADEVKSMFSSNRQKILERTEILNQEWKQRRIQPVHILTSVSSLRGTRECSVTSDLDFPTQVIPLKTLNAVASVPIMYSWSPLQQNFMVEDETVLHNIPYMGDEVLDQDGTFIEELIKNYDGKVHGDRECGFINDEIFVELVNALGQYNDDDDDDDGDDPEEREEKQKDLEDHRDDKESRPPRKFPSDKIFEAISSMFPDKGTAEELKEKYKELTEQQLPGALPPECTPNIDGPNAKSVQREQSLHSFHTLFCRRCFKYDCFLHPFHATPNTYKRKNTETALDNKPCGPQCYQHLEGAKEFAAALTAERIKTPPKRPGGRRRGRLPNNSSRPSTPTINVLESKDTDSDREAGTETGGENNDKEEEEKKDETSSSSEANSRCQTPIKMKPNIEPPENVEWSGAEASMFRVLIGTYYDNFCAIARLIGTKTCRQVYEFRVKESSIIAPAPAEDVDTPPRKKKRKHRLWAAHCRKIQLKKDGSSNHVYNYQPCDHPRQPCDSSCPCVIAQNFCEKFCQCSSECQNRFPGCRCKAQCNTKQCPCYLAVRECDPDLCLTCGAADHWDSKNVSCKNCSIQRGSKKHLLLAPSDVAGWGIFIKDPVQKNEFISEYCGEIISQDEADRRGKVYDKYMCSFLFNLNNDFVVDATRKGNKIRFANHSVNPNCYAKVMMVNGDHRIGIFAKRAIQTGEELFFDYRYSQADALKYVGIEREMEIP
T1 sequence (O75530 whole entry partner): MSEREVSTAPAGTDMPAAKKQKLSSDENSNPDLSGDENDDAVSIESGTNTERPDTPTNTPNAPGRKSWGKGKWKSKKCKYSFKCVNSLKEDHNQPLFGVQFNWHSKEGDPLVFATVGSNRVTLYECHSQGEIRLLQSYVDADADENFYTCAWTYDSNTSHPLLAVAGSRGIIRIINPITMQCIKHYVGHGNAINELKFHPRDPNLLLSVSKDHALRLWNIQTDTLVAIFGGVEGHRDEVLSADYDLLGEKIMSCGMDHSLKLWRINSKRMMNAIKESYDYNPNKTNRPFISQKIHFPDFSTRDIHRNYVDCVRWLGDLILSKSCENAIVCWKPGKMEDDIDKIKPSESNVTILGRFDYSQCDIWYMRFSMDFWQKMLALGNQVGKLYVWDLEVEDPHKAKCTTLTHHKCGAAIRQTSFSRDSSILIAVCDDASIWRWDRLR
T1 sequence (Q15022 whole entry partner): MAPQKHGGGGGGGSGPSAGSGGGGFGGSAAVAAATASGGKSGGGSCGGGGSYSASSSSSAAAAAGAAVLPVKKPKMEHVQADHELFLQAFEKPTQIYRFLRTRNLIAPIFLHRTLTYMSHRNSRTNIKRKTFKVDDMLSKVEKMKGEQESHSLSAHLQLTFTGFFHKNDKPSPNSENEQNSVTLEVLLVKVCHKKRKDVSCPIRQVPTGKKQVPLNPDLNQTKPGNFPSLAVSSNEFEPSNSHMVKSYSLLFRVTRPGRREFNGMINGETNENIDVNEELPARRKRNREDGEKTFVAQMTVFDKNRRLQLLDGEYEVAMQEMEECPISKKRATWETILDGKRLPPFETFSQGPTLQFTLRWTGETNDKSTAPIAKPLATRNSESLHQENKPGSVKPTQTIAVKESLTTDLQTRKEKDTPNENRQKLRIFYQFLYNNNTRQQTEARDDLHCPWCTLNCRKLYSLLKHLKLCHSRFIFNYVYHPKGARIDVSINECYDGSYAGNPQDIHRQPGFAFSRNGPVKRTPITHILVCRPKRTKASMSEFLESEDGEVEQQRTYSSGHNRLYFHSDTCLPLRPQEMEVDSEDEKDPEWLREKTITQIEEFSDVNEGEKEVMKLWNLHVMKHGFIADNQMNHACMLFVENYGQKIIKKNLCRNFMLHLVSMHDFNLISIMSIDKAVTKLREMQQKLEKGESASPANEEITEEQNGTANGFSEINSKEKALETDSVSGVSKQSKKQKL
T1 sequence (Q09028 whole entry partner): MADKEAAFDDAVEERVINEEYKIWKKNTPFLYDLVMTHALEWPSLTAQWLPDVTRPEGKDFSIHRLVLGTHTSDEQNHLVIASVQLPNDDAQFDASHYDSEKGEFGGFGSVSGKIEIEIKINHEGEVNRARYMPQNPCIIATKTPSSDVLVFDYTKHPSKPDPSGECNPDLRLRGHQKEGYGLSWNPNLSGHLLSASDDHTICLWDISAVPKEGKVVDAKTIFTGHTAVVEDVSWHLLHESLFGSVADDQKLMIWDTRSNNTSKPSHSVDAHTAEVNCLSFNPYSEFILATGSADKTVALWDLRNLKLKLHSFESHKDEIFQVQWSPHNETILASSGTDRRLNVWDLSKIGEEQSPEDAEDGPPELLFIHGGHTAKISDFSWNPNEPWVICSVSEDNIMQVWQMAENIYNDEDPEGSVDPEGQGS
T1 sequence (Q6ZN18 1-503 partner limits assumed): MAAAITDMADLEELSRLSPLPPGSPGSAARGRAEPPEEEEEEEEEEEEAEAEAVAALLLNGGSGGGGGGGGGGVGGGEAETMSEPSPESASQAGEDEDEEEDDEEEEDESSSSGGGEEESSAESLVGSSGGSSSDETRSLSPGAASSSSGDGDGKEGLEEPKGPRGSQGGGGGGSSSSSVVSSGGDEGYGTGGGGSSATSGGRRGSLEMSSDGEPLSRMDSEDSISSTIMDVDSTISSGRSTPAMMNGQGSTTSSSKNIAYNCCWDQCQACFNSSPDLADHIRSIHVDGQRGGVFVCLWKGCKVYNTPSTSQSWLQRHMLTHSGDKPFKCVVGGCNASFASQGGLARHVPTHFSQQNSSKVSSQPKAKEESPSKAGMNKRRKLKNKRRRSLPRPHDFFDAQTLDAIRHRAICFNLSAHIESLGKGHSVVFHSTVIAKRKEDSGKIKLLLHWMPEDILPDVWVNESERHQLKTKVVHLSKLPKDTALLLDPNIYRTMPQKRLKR
Protocol: Compounds can be evaluated for their ability to inhibit the methyltransferase activity of EZH2 within the PRC2 complex using the following assay. Human PRC2 complex is prepared by co-expressing each of the 5 member proteins (EZH2, EED, SUZ12, RbAp48, AEBP2) in Sf9 cells followed by co-purification. The proteins may be expressed as tagged versions, e.g. EZH2 may be expressed as FLAG-EZH2. The tag can be used for purification.
Enzyme activity is measured in a scintillation proximity assay (SPA) where a tritiated methyl group is transferred from 3H-SAM to a lysine residue on Histone H3 of a mononucleosome, purified from HeLa cells. Mononucleosomes are captured on SPA beads and the resulting signal is read on a ViewLux plate reader. SPA beads are e.g. available from Perkin Elmer, United States. This may be done as described in Garapaty-Rao et al, 2013 Identification of EZH2 and EZH1 small molecule inhibitors with selective impact on diffuse large B cell lymphoma cell growth. Chemistry and Biology 20, 1329-1339.
1. […]
1. Read the assay plates on the Viewlux Plate Reader utilizing the 613 nm emission filter with a 300 s read time. […]
Percent inhibition is calculated relative to the DMSO control for each compound concentration and the resulting values are fit using standard IC50 fitting parameters within the ABASE data fitting software package.

EZH2 = conditions: PDGFB NSCs, different concentrations for 3 days, FIG. 2A

4-hydroxytamoxifen [4-OHT]
survival of mice [1]: significantly longer survival | Ezh2 expression [2]: complete loss of Ezh2

CCN(c1cc(-c2ccc(CN3CCOCC3)cc2)cc(C(=O)NCc2c(C)cc(C)[nH]c2=O)c1C)C1CCOCC1 [EPZ6438]
colonies formed [3]: formed fewer colonies | proliferation [4]: did not affect their proliferation | proliferation [5]: reduced proliferation

CC/C(=C(\c1ccccc1)c1ccc(OCCN(C)C)cc1)c1ccccc1 [Tamoxifen, tamoxifen]
survival of mice [6]: significantly longer survival

GSK343
colonies formed [3]: formed fewer colonies | IC50 [7]: 5 nM | proliferation [4]: did not affect their proliferation | EZH2 inhibition (H3K27me3 and H3K27me2 levels by immunoblot) (EZH2): potent and highly selective EZH2 inhibitors | proliferation [5]: reduced proliferation
